Measurements taken from patent US20230129258A1, “HETEROTANDEM BICYCLIC PEPTIDE COMPLEXES” (BicycleTx Limited, priority 2019, published 2023).

Target: T1, OX40 (Homo sapiens, UniProt P43489)
T1 construct: host or cells: OX40 Jurkat cells
T1 sequence (P43489 29-277): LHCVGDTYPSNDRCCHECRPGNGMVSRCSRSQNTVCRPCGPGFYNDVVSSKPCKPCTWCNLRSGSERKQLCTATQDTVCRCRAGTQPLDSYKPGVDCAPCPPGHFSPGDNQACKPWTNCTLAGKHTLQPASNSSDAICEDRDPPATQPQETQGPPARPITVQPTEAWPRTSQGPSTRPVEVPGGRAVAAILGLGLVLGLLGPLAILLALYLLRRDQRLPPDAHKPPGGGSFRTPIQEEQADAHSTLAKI
Assay: Promega OX40 cell-activity assay (NF-kB luciferase, Jurkat) in co-culture with 4T1-D02 tumor cells
Type: cell-based
Conditions: co-culture with Nectin-4 positive 4T1-D02 cells
Experimental: Promega have developed an OX40 cell-activity assay that uses NF-κB luciferase luminescence as a read-out of OX40 activation in Jurkat cells (Promega CS197704). On the day of the experiment, prepare medium by thawing FBS and adding 5% FBS to RPMI-1640. Thaw OX40 Jurkat cells in the water-bath and then add 500 μl cells to 11.5 ml pre-warmed 5% FBS RPMI-1640 medium. Add 55 μl cells/well to white cell culture plates. Harvest tumor cells from culture. 4T1 is a Nectin-4 negative murine mammary gland epithelial cancer cell and it was genetically modified to express murine Nectin-4 on the cell surface (4T1 Nectin-4 positive; clone 411-D02). Tumor cells were cultured to 80% confluency in vitro in RPM11640 medium supplemented with 10% heat-inactivated FBS, 1× Penicillin/Streptomycin, 1× L-Glutamine, 20 mM HEPES and 1×NEAA (RPMI working medium). Tumor cells were trypsinized and washed two times at 1500 rpm for 5 minutes in RPM11640 working medium prewarmed to 37° C. Count cells and resuspend at 2,000,000 cells/mL in R5 media (for 10,000 cells/well). Add 5 μL of tumor cells per well. […]
Co-incubate cells together with agonists for 6 hours at 37° C., 5% CO2. […] Read luciferase signal on CLAIROStar plate-reader using the MARS program and normalize the fold induction relative to background (medium alone). […]

## CSCC[C@@H]1NC(=O)[C@@H]2CSCCC(=O)N3CN(CN(C3)C(=O)CCSC[C@H](NC(=O)CCOCCOCCOCCN(CCOCCOCCOCCn3cc(CCC(=O)NCCCC[C@H](NC(=O)[C@H](C)NC(=O)[C@@H]4CSCCC(=O)N5CN6CN(C5)C(=O)CCSC[C@H](NC(=O)[C@@H]5CCCN5C(=O)[C@H](CO)NC(=O)[C@H](Cc5ccc(O)cc5)NC(=O)[C@H](CC(C)C)NC(=O)[C@@H](NC(=O)[C@H](C)N)CSCCC6=O)C(=O)N[C@@H](Cc5c[nH]c6ccccc56)C(=O)N[C@@H](Cc5c[nH]cn5)C(=O)N5CCC[C@H]5C(=O)N[C@@H](CC(C)C)C(=O)N[C@@H](CC(N)=O)C(=O)N[C@@H](CC(=O)O)C(=O)N4)C(N)=O)nn3)CCOCCOCCOCCn3cc(CCC(=O)NCCCC[C@H](NC(=O)[C@H](C)NC(=O)[C@@H]4CSCCC(=O)N5CN6CN(C5)C(=O)CCSC[C@H](NC(=O)[C@@H]5CCCN5C(=O)[C@H](CO)NC(=O)[C@H](Cc5ccc(O)cc5)NC(=O)[C@H](CC(C)C)NC(=O)[C@@H](NC(=O)[C@H](C)N)CSCCC6=O)C(=O)N[C@@H](Cc5c[nH]c6ccccc56)C(=O)N[C@@H](Cc5c[nH]cn5)C(=O)N5CCC[C@H]5C(=O)N[C@@H](CC(C)C)C(=O)N[C@@H](CC(N)=O)C(=O)N[C@@H](CC(=O)O)C(=O)N4)C(N)=O)nn3)C(=O)N3CCC[C@H]3C(=O)N[C@@H](Cc3cccc4ccccc34)C(=O)N[C@H](CC(=O)O)C(=O)N2)C(=O)CCSC[C@@H](C(N)=O)NC(=O)[C@H](Cc2c[nH]c3ccccc23)NC(=O)[C@@H]2C[C@@H](O)CN2C(=O)[C@@H]2CCCN2C(=O)[C@H]([C@@H](C)O)NC(=O)[C@H](CO)NC(=O)[C@H](Cc2c[nH]c3ccccc23)NC(=O)[C@H](CC(=O)O)NC(=O)[C@H](CCCCNC(=N)N)NC1=O [BCY12967]
  OX40 agonism: potent OX40 agonism
